Measured values reported in ChEMBL document CHEMBL5303573, “Mapping human microbiome drug metabolism by gut bacteria and their genes” (Nature, 2019).

How the values were obtained:
[1] = The drug is tested on Anaerococcus hydrogenalis strain: DSM7454 for biotransformation. The drug concentrations were measured before and after a 12-h incubation by liquid-chromatography-coupled mass spectrometry (LC–MS); settings: 2 µM
[2] = The drug is tested on Ruminococcus gnavus strain: ATCC29149 for biotransformation. The drug concentrations were measured before and after a 12-h incubation by liquid-chromatography-coupled mass spectrometry (LC–MS); settings: mediterraneibacter gnavus, 2 µM
[3] = The drug is tested on Edwardsiella tarda strain: ATCC23685 for biotransformation. The drug concentrations were measured before and after a 12-h incubation by liquid-chromatography-coupled mass spectrometry (LC–MS); settings: 2 µM
[4] = enterocloster bolteae, 12 h, 2 µM
Description: The drug is tested on Clostridium bolteae strain: ATCCBAA-613 for biotransformation. The drug concentrations were measured before and after a 12-h incubation by liquid-chromatography-coupled mass spectrometry (LC–MS)

[5] = The drug is tested on Bifidobacterium ruminantium strain: fecal isolate for biotransformation. The drug concentrations were measured before and after a 12-h incubation by liquid-chromatography-coupled mass spectrometry (LC–MS); settings: 2 µM
[6] = The drug is tested on Bacteroides sp. WH2 strain: WH2 for biotransformation. The drug concentrations were measured before and after a 12-h incubation by liquid-chromatography-coupled mass spectrometry (LC–MS); settings: bacteroides sp. wh2, 12 h, 2 µM
[7] = The drug is tested on Bacteroides fragilis strain: HMW615 for biotransformation. The drug concentrations were measured before and after a 12-h incubation by liquid-chromatography-coupled mass spectrometry (LC–MS); settings: 2 µM
[8] = The drug is tested on Ruminococcus torques strain: ATCC27756 for biotransformation. The drug concentrations were measured before and after a 12-h incubation by liquid-chromatography-coupled mass spectrometry (LC–MS); assay type: ADME; parameters: dose 2 uM, timepoint 0 vs 12 hours; settings: 2 µM
[9] = The drug is tested on Bacteroides caccae strain: ATCC43185 for biotransformation. The drug concentrations were measured before and after a 12-h incubation by liquid-chromatography-coupled mass spectrometry (LC–MS); settings: 2 µM
[10] = The drug is tested on Bacteroides fragilis strain: HMW610 for biotransformation. The drug concentrations were measured before and after a 12-h incubation by liquid-chromatography-coupled mass spectrometry (LC–MS); settings: 2 µM
[11] = The drug is tested on Clostridium ramosum strain: DSM1402 for biotransformation. The drug concentrations were measured before and after a 12-h incubation by liquid-chromatography-coupled mass spectrometry (LC–MS); settings: thomasclavelia ramosa, 2 µM
[12] = The drug is tested on Bacteroides dorei strain: DSM17855 for biotransformation. The drug concentrations were measured before and after a 12-h incubation by liquid-chromatography-coupled mass spectrometry (LC–MS); settings: phocaeicola dorei, 2 µM
[13] = The drug is tested on Eubacterium rectale strain: ATCC33656 for biotransformation. The drug concentrations were measured before and after a 12-h incubation by liquid-chromatography-coupled mass spectrometry (LC–MS); settings: agathobacter rectalis, 2 µM
[14] = The drug is tested on Blautia luti strain: DSM14534 for biotransformation. The drug concentrations were measured before and after a 12-h incubation by liquid-chromatography-coupled mass spectrometry (LC–MS); assay type: ADME; parameters: dose 2 uM, timepoint 0 vs 12 hours; settings: 2 µM
[15] = The drug is tested on Bacteroides finegoldii strain: DSM17565 for biotransformation. The drug concentrations were measured before and after a 12-h incubation by liquid-chromatography-coupled mass spectrometry (LC–MS); settings: 2 µM
[16] = anaerostipes sp., 12 h, 2 µM
Description: The drug is tested on Anaerostipes sp. strain: fecal isolate for biotransformation. The drug concentrations were measured before and after a 12-h incubation by liquid-chromatography-coupled mass spectrometry (LC–MS)

[17] = The drug is tested on Enterobacter cancerogenus strain: ATCC35316 for biotransformation. The drug concentrations were measured before and after a 12-h incubation by liquid-chromatography-coupled mass spectrometry (LC–MS); settings: 2 µM
[18] = The drug is tested on Coprococcus comes strain: ATCC27758 for biotransformation. The drug concentrations were measured before and after a 12-h incubation by liquid-chromatography-coupled mass spectrometry (LC–MS); assay type: ADME; parameters: dose 2 uM, timepoint 0 vs 12 hours; settings: 2 µM
[19] = The drug is tested on Collinsella aerofaciens strain: ATCC25986 for biotransformation. The drug concentrations were measured before and after a 12-h incubation by liquid-chromatography-coupled mass spectrometry (LC–MS); settings: 2 µM
[20] = The drug is tested on Alistipes indistinctus strain: DSM22520 for biotransformation. The drug concentrations were measured before and after a 12-h incubation by liquid-chromatography-coupled mass spectrometry (LC–MS); settings: 2 µM

Measured: Bacterial Biotransformation

CCC(C)n1ncn(-c2ccc(N3CCN(c4ccc(OCC5COC(Cn6cncn6)(c6ccc(Cl)cc6Cl)O5)cc4)CC3)cc2)c1=O (stereo not given) [ITRACONAZOLE]
not listed: [20]
Compound NOT metabolized: all other assays above

CCN(CC)C(=O)C1(c2ccccc2)CC1CN (stereo not given)
not listed: [20]
Compound NOT metabolized: all other assays above

Nc1nnc(-c2cccc(Cl)c2Cl)c(N)n1 [LAMOTRIGINE]
not listed: [20]
Compound NOT metabolized: all other assays above

CC(=O)CCCCn1c(=O)c2c(ncn2C)n(C)c1=O [PENTOXIFYLLINE]
not listed: [4] | [5] | [7] | [11] | [15]
Compound NOT metabolized: all other assays above

CCN(CC)CCNC(=O)c1cc(Cl)c(N)cc1OC [METOCLOPRAMIDE]
not listed: [20]
Compound NOT metabolized: all other assays above

COCCc1ccc(OCC(O)CNC(C)C)cc1.COCCc1ccc(OCC(O)CNC(C)C)cc1.O=C(O)C(O)C(O)C(=O)O (stereo not given) [METOPROLOL TARTRATE]
Compound metabolized: [5]
not listed: [20]
Compound NOT metabolized: all other assays above
